Bridge positions count the residues as written; N and C are the ends. Peptide text beside a SMILES is read from it.
Tests used:
[1] = target: T1, amylin receptors (Rattus norvegicus, UniProt P32214+Q9JJ74); assay: Receptor binding assay (competition with 125I Bolton Hunter rat amylin, basal forebrain membranes)
T1 construct: This basal forebrain tissue, containing the nucleus accumbens and surrounding regions, was weighed and homogenized; from tissue; host or cells: rat basal forebrain (nucleus accumbens and surrounding regions) membranes
T1 sequence (P32214 25-516): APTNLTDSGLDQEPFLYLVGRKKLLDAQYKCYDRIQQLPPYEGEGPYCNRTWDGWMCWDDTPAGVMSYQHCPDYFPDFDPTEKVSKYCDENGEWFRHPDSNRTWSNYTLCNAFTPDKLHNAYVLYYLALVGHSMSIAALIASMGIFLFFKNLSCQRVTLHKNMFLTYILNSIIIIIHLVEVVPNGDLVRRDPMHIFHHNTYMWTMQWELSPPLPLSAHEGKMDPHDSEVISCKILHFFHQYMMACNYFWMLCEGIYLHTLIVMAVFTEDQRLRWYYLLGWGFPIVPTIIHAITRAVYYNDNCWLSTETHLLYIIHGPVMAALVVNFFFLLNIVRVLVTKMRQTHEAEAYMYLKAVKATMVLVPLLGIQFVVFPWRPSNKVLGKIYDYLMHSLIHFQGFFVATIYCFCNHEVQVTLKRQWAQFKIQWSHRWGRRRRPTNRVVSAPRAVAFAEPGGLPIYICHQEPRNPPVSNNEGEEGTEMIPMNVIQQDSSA
T1 sequence (Q9JJ74 27-148): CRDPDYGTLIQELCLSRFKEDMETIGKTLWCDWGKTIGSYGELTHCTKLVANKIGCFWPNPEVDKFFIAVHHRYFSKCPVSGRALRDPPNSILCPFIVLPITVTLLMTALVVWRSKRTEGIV
Description: A preferred source of the membrane preparations used in the assay is the basal forebrain which comprises membranes from the nucleus accumbens and surrounding regions.
Unlabeled peptides were obtained from BACHEM Inc. (Torrance, Calif.) and Peninsula Laboratories (Belmont, Calif.).
Male Sprague-Dawley rats (200-250) grams were sacrificed by decapitation. Brains were removed to cold phosphate-buffered saline (PBS). From the ventral surface, cuts were made rostral to the hypothalamus, bounded laterally by the olfactory tracts and extending at a 45° angle medially from these tracts. This basal forebrain tissue, containing the nucleus accumbens and surrounding regions, was weighed and homogenized in ice-cold 20 mM HEPES buffer (20 mM HEPES acid, pH adjusted to 7.4 with NaOH at 23° C.). […] The final membrane pellet was resuspended in 20 mM HEPES buffer containing 0.2 mM phenylmethylsulfonyl fluoride (PMSF).
Solutions were incubated for 60 minutes at 23° C. […] Filters were washed immediately before filtration with 5 ml cold PBS, and immediately after filtration with 15 ml cold PBS.

[2] = test system: insulin-stimulated glycogen synthesis in soleus muscle; assay: Soleus muscle assay; assay type: cell-based; conditions: rat soleus muscle, inhibition of glucose incorporation into glycogen
Method: Concentrations of peptide dissolved in carrier-free buffers are determined by quantitative amino acid analysis, as described therein. The ability of compounds to act as agonists in this assay is determined by measuring EC50 values. […] Similar results were obtained with other agonist compounds listed above.

Which IC50 [1] does the source give for CC[C@H](C)[C@H](NC(=O)[C@H](C)NC(=O)CNC(=O)[C@H](Cc1ccccc1)NC(=O)[C@H](CC(N)=O)NC(=O)[C@H](CC(N)=O)NC(=O)[C@H](CO)NC(=O)[C@H](CO)NC(=O)[C@H](Cc1c[nH]cn1)NC(=O)[C@@H](NC(=O)[C@H](CC(C)C)NC(=O)[C@H](Cc1ccccc1)NC(=O)[C@H](CC(N)=O)NC(=O)[C@H](C)NC(=O)[C@H](CC(C)C)NC(=O)[C@H](CCCNC(=N)N)NC(=O)[C@H](CCC(N)=O)NC(=O)[C@@H](NC(=O)[C@H](C)NC(=O)[C@@H]1CCCCNC(=O)C[C@H](NC(=O)[C@@H](N)CCCCN)C(=O)N[C@@H](CC(N)=O)C(=O)N[C@@H]([C@@H](C)O)C(=O)N[C@@H](C)C(=O)N[C@@H]([C@@H](C)O)C(=O)N1)[C@@H](C)O)C(C)C)C(=O)N[C@@H](CC(C)C)C(=O)N[C@@H](CO)C(=O)N[C@@H](CO)C(=O)N[C@H](C(=O)N[C@@H](CC(N)=O)C(=O)N[C@H](C(=O)NCC(=O)N[C@@H](CO)C(=O)N[C@@H](CC(N)=O)C(=O)N[C@H](C(=O)N[C@@H](Cc1ccc(O)cc1)C(N)=O)[C@@H](C)O)C(C)C)[C@@H](C)O [^2,7Cyclo-[^2Asp,^7Lys]-h-Amylin] (H-KDNTATKATQRLANFLVHSSNNFGAILSSTNVGSNTY-NH2; lactam 2-7; N-terminus and C-terminus assumed) here?
The IC50 was 0.31 nM.

And the EC50 [2]?
Its EC50 is 6.62 nM.
